Tests used:
[1] = Compound was evaluated for the half life period after oral administration in conscious dog.; format: ADME, organism-based, Canis lupus familiaris; details: in vivo
[2] = species: Oryctolagus cuniculus; assay: In vitro smooth muscle contractility using isolated rabbit duodenum; format: functional, Muscle tissue
[3] = Oral bioavailability in dog (conscious); format: ADME, organism-based, Canis lupus familiaris; details: in vivo
[4] = species: Canis familiaris; assay: Effective dose was evaluated for gastrointestinal motor stimulating activity in dog; format: functional; details: Canis lupus familiaris

SMILES | half-life [1] | pED50 [2] | bioavailability [3] | ED50 [4]
CC[C@H]1NC(=O)[C@H](C)[C@@H](O[C@H]2C[C@@](C)(OC)C[C@H](C)O2)[C@H](C)[C@@H](O[C@@H]2O[C@H](C)C[C@H](N(C)C)[C@H]2O)[C@@]2(C)C[C@@H](C)[C@@H](O2)[C@H](C)[C@@H](O)[C@]1(C)O | 3.3 h | 7.5 | 40% | –
CC[C@H]1NC(=O)[C@H](C)[C@@H](O[C@H]2C[C@@](C)(OC)C[C@H](C)O2)[C@H](C)[C@@H](O[C@@H]2O[C@H](C)C[C@H](N(C)CC(C)O)[C@H]2O)[C@@]2(C)C[C@@H](C)[C@@H](O2)[C@H](C)[C@@H](O)[C@]1(C)O (some centres undefined) | – | 6.6 | – | –
CC[C@H]1OC(=O)[C@H](C)[C@@H](O[C@H]2C[C@@](C)(OC)C[C@H](C)O2)[C@H](C)[C@@H](O[C@@H]2O[C@H](C)C[C@H](N(C)CC)[C@H]2O)[C@@]2(C)CC(C)=C(O2)[C@H](C)[C@@H](O)[C@H]1C [ALEMCINAL] | – | 7.22 | – | –
CC[C@H]1NC(=O)[C@H](C)[C@@H](O[C@H]2C[C@@](C)(OC)C[C@H](C)O2)[C@H](C)[C@@H](O[C@@H]2O[C@H](C)C[C@H](N(C)CCF)[C@H]2O)[C@@]2(C)C[C@@H](C)[C@@H](O2)[C@H](C)[C@@H](O)[C@]1(C)O | – | 6.3 | – | –
CC[C@H]1NC(=O)[C@H](C)[C@@H](O[C@H]2C[C@@](C)(OC)C[C@H](C)O2)[C@H](C)[C@@H](O[C@@H]2O[C@H](C)C[C@H](N(C)CC)[C@H]2O)[C@@]2(C)C[C@@H](C)[C@@H](O2)[C@H](C)[C@@H](O)[C@]1(C)O | – | 7.11 | – | –
CC[C@H]1OC(=O)[C@H](C)[C@@H](O[C@H]2C[C@@](C)(OC)[C@@H](O)[C@H](C)O2)[C@H](C)[C@@H](O[C@@H]2O[C@H](C)C[C@H](N(C)C)[C@H]2O)[C@](C)(O)C[C@@H](C)C(=O)[C@H](C)[C@@H](O)[C@]1(C)O [ERYTHROMYCIN] | – | 5.85 | – | –
CC[C@H]1NC(=O)[C@H](C)[C@@H](O[C@H]2C[C@@](C)(OC)C[C@H](C)O2)[C@H](C)[C@@H](O[C@@H]2O[C@H](C)C[C@H](N(C)CCO)[C@H]2O)[C@@]2(C)C[C@@H](C)[C@@H](O2)[C@H](C)[C@@H](O)[C@]1(C)O | – | 6.6 | – | –
CC[C@@H](O)[C@@](C)(O)C1OC(=O)[C@@H](C)[C@H](OC2C[C@@](C)(OC)C[C@H](C)O2)[C@H](C)[C@@H](O[C@@H]2O[C@H](C)C[C@H](N(C)C)[C@H]2O)[C@@H](C)[C@H]2O[C@H]([C@@H]2C)[C@@H]1C (some centres undefined) | – | 4.35 | – | –
CC[C@H]1OC(=O)[C@H](C)[C@@H](O[C@H]2C[C@@](C)(OC)C[C@H](C)O2)[C@H](C)[C@@H](O[C@@H]2O[C@H](C)C[C@H](N(C)C)[C@H]2O)[C@@]2(C)C[C@@H](C)[C@@H](O2)[C@H](C)[C@@H](O)[C@]1(C)O | 4 h | 7.8 | 5% | –
CC[C@H]1NC(=O)[C@H](C)[C@@H](O[C@H]2C[C@@](C)(OC)C[C@H](C)O2)[C@H](C)[C@@H](O[C@@H]2O[C@H](C)C[C@H](NC)[C@H]2O)[C@@]2(C)C[C@@H](C)[C@@H](O2)[C@H](C)[C@@H](O)[C@]1(C)O | – | 7.25 | – | –
CC[C@H]1NC(=O)[C@H](C)[C@@H](O[C@H]2C[C@@](C)(OC)C[C@H](C)O2)[C@H](C)[C@@H](O[C@@H]2O[C@H](C)C[C@H](N(C)C(C)C)[C@H]2O)[C@@]2(C)C[C@@H](C)[C@@H](O2)[C@H](C)[C@@H](O)[C@]1(C)O | 3.8 h | 8 | 60.5% | 0.036 mg/kg
CC[C@H]1NC(=O)[C@H](C)[C@@H](O[C@H]2C[C@@](C)(OC)C[C@H](C)O2)[C@H](C)[C@@H](O[C@@H]2O[C@H](C)C[C@H](N(C)CC(C)C)[C@H]2O)[C@@]2(C)C[C@@H](C)[C@@H](O2)[C@H](C)[C@@H](O)[C@]1(C)O | – | 6.88 | – | –
